Test results as given in patent US20180290977A1, “KDM4 INHIBITORS” (Albert-Ludwigs-University Freiburg, priority 2017, published 2018).
Read-outs that look alike come from different tables or passages of the source.

Assays:
[1] = target: KDM5B (Homo sapiens, UniProt Q9UGL1); assay: KDM demethylase inhibition (IC50); assay type: biochemical
[2] = target: KDM6A (Homo sapiens, UniProt O15550); assay: KDM demethylase inhibition (IC50); assay type: biochemical
[3] = target: KDM6B (Homo sapiens, UniProt O15054); assay: KDM demethylase inhibition (IC50); assay type: biochemical
[4] = target: T1, KDM4A (Homo sapiens, UniProt O75164); assay: KDM demethylase inhibition (IC50); assay type: biochemical
T1 sequence (O75164 1-1064): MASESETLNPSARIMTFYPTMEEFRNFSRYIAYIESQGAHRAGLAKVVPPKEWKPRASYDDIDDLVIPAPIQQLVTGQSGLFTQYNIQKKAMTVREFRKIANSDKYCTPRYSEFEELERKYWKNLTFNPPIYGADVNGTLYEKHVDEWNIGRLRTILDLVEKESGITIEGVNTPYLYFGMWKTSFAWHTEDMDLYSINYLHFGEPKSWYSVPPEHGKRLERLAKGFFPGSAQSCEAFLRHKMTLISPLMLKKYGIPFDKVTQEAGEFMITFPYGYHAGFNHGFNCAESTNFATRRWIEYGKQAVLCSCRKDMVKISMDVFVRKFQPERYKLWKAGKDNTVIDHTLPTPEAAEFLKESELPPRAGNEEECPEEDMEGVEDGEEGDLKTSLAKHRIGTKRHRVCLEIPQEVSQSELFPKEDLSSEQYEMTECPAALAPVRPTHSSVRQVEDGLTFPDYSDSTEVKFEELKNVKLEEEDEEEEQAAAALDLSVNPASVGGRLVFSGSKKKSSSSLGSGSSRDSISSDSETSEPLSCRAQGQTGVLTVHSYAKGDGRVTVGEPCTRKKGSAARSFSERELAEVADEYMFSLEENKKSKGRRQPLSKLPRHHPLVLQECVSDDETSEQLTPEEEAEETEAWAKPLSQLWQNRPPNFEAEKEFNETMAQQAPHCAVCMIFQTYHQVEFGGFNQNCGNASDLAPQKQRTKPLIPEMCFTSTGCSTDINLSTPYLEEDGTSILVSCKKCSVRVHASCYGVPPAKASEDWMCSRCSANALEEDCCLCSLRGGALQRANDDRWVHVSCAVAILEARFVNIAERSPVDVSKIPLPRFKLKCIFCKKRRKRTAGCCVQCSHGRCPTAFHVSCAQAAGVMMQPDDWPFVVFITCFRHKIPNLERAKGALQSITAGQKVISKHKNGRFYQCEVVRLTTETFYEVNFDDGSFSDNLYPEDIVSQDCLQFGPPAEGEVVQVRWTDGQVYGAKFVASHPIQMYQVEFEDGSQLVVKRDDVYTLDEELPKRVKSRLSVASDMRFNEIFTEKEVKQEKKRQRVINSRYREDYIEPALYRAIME

[5] = target: T2, KDM2B (Homo sapiens, UniProt Q8NHM5); assay: KDM demethylase inhibition (IC50); assay type: biochemical
T2 sequence (Q8NHM5 1-1336): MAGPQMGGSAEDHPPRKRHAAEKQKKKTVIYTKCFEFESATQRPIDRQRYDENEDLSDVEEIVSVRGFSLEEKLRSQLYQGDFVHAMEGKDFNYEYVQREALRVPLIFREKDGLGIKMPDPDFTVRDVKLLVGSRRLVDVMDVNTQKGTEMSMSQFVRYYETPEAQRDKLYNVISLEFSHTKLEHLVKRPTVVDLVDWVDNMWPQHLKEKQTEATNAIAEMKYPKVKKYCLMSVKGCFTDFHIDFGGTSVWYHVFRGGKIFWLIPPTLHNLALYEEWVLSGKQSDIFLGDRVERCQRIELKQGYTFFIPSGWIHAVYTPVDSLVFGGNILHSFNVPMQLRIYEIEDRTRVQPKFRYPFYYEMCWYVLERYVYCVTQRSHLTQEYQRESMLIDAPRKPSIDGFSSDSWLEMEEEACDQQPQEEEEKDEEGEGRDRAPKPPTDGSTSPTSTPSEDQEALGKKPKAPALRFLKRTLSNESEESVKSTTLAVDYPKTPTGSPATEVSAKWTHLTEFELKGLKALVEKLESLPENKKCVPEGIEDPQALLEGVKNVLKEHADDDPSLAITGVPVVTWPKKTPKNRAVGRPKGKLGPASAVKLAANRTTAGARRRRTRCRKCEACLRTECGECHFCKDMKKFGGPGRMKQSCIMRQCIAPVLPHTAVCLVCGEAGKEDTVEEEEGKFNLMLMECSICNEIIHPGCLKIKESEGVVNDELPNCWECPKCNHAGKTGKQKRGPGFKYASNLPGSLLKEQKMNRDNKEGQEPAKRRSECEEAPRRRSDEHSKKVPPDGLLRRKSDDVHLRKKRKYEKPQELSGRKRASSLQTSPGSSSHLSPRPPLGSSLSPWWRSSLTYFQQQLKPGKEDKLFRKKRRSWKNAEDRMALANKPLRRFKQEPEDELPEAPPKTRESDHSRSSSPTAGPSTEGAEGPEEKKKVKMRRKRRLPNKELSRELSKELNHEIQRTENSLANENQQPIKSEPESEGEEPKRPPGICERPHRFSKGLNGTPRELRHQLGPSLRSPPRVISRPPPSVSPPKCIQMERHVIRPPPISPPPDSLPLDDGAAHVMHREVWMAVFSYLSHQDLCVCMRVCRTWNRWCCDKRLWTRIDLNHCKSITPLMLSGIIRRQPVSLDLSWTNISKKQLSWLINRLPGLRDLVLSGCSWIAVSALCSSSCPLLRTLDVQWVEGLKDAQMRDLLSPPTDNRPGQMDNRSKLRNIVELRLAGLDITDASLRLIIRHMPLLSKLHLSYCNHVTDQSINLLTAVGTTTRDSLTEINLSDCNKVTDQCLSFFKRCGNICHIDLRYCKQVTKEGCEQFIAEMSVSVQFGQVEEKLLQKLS

[6] = Pharmacokinetic study iv/po; assay type: in vivo; details: Dose iv/po 5/10 mg/kg

Chain of KDM5B (Q9UGL1 whole entry): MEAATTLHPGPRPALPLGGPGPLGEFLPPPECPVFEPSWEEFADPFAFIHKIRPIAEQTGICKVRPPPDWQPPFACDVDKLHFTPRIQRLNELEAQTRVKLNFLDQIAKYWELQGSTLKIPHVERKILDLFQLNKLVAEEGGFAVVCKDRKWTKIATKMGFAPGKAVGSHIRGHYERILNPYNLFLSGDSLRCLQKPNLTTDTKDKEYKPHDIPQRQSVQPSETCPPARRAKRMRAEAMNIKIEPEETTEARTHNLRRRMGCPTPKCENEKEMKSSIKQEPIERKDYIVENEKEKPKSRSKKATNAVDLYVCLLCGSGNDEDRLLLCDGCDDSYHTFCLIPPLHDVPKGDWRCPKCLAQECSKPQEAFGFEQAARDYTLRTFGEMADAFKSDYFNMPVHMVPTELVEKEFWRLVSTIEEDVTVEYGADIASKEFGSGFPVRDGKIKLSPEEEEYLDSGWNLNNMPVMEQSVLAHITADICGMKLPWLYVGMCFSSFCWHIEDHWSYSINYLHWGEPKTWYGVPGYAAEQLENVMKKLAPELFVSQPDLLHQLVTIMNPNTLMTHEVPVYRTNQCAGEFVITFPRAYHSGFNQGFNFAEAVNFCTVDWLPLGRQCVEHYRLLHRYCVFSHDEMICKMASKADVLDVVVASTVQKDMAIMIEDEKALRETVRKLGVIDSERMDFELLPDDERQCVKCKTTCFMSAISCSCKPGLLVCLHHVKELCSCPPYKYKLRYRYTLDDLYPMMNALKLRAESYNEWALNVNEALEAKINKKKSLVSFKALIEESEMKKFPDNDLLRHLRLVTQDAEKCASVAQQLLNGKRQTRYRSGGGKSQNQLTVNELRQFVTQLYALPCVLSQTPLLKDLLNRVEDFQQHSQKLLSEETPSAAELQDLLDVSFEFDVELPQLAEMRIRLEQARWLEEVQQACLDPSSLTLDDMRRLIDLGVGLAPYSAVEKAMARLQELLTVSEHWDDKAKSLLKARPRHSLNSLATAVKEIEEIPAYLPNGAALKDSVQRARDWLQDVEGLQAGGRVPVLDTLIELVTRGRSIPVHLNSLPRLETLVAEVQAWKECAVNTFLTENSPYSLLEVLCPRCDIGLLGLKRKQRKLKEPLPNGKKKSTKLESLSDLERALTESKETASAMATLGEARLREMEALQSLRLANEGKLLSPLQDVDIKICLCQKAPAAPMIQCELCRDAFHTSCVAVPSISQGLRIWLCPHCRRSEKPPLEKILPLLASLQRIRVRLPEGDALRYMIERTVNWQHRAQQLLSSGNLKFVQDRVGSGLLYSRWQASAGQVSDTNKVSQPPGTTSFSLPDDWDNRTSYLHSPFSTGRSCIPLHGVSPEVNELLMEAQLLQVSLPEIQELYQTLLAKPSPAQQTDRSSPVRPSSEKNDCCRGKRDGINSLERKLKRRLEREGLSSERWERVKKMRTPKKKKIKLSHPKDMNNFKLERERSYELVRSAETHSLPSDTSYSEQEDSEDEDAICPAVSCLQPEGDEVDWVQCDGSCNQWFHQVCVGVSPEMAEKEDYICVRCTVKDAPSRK
Chain of KDM6A (O15550 whole entry): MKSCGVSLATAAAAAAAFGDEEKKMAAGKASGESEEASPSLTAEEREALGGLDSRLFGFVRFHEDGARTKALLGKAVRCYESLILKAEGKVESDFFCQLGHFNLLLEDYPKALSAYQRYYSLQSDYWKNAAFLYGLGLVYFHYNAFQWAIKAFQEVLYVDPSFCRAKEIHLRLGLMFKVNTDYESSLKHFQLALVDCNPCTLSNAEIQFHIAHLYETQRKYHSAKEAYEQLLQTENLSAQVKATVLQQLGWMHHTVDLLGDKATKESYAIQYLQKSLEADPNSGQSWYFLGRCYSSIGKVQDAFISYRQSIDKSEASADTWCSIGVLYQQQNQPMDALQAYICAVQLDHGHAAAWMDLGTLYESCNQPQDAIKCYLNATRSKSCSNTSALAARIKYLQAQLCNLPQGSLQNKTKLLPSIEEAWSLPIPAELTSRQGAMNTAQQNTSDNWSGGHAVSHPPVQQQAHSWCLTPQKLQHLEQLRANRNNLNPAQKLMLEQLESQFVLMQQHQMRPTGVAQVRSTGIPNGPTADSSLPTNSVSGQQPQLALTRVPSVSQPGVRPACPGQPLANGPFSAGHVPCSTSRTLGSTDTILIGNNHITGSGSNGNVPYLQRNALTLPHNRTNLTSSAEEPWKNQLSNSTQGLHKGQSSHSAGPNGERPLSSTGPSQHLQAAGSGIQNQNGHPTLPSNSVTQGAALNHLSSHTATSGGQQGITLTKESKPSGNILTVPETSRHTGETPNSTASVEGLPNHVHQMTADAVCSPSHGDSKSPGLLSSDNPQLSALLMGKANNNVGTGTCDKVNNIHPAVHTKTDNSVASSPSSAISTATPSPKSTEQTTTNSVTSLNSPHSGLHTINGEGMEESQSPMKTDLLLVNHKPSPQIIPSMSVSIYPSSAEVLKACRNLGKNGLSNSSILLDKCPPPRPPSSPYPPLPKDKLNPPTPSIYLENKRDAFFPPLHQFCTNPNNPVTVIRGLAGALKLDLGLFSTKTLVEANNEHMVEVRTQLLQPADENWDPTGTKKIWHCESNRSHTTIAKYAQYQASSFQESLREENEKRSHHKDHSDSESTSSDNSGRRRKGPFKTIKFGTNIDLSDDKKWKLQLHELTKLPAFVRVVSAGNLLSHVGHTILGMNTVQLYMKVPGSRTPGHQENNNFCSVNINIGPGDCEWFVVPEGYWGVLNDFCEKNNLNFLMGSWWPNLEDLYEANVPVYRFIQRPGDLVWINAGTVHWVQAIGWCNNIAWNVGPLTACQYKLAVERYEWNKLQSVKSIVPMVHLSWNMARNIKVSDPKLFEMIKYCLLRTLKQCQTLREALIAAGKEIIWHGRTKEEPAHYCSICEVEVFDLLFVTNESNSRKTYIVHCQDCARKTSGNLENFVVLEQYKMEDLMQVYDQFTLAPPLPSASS
Chain of KDM6B (O15054 whole entry): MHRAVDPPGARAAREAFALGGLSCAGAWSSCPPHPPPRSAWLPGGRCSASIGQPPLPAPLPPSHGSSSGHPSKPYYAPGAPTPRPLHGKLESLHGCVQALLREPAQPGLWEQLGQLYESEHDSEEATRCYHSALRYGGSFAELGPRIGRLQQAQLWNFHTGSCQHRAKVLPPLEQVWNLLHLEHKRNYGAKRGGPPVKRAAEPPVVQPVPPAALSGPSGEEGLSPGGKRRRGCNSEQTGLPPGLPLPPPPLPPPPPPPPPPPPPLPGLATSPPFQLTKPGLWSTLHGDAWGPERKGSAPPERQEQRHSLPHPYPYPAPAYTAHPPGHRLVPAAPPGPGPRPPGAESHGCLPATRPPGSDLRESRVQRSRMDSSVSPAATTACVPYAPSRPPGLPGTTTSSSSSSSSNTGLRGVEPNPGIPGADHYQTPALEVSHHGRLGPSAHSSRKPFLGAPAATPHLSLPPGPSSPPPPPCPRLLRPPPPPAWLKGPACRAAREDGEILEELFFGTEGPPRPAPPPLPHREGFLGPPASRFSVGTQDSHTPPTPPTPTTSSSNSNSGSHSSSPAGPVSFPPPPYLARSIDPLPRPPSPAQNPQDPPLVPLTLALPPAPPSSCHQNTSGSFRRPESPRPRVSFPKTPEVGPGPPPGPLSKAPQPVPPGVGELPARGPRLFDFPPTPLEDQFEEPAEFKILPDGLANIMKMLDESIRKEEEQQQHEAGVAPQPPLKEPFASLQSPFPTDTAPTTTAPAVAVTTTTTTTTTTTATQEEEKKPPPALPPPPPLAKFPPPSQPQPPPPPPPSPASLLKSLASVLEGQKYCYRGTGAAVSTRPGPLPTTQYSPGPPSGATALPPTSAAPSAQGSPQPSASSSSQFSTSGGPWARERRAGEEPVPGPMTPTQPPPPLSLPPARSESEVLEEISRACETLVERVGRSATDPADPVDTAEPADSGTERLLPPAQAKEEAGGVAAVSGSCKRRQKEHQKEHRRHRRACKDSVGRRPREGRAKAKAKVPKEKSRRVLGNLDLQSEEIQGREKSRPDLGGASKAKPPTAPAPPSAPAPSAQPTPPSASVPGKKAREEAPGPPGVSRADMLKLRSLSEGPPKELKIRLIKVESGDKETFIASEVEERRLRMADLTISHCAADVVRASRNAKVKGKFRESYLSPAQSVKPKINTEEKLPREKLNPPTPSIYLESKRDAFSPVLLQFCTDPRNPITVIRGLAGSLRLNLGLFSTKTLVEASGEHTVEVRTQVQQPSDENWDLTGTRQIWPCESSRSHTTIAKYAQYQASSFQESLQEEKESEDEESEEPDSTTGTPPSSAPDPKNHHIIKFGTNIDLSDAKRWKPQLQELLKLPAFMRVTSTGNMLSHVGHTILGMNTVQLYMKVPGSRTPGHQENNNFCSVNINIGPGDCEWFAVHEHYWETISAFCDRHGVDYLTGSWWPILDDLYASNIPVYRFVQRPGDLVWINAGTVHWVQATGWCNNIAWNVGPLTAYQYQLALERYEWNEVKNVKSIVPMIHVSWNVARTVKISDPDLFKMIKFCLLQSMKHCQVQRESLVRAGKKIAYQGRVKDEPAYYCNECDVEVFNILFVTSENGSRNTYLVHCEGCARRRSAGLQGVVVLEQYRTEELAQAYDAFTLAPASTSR

For CN(c1ccccc1)c1ccc2c(c1)CCC[C@H]2CNc1cnccc1C(=O)O [Compound I, 3-({[(1R)-6-[methyl(phenyl)amino]-1,2,3,4-tetrahydronaphthalen-1-yl]methyl}amino)pyridine-4-carboxylic Acid], which “effect on the demethylase activity of KDM5B” value [1] is on record?
Its value is “weak effect”.

And the IC50 ([1]; read-out: Compound I IC50, KDM5B)?
Its IC50 is 750 nM.

And the IC50 [2]?
The IC50 was over 10000 nM.

And the IC50 [3]?
Its IC50 is over 10000 nM.

What about the IC50 ([4]; read-out: Compound I IC50) of the same molecule?
Its IC50 is 104 nM.

And the IC50 ([4]; read-out: IC50, demethylase activity)?
Its IC50 is under 105 nM.

What about the IC50 [5] of the same molecule?
The IC50 was over 10000 nM.

What about the “po 1/2” value [6] of the same molecule?
The value was 2.57 h.

And the Vd ([6]; plasma, 5 mg/kg, read-out: Vz (mL/kg), apparent volume of distribution during terminal phase)?
The Vd was 666 mL/kg.

And the AUC ([6]; plasma)?
The AUC was 10400 ng·h/mL.
